The values below come from ChEMBL document CHEMBL6182869, “Tetracationic tetraaryltetranaphtho[2,3]porphyrins for photodynamic inactivation against Staphylococcus aureus biofilm” (Eur J Med Chem, 2025).

Data set [1] concerns Staphylococcus aureus. The data set can be described thus: Antibacterial activity against Staphylococcus aureus preincubated with compound for 15 mins followed by light irradiation with 730 nm, 40 J/cm2 by cell counting analysis. Format: functional, organism-based. As to conditions: dose 0.5-8 µM.
Data set [2] has as its system Escherichia coli. The data set can be described thus: Antibacterial activity against Escherichia coli assessed as bacterial growth inhibition preincubated with compound for 15 mins followed by light irradiated with 730 nm, 40 J/cm2 and measured after 24 hrs by broth microdilution method. Format: functional. As to conditions: light or radiation study, 24.25 h, time 1455 min. Background: In broth dilution the organism is exposed to a series of concentrations in liquid medium.

For data set [3], the system named is Escherichia coli. As to the kind of experiment: Antibacterial activity against Escherichia coli assessed as bacterial growth inhibition measured after 24 hrs by broth microdilution method. The data set is classed as functional.
In data set [4] the test system is Staphylococcus aureus. The data set can be described thus: Antibacterial activity against Staphylococcus aureus assessed as reduction in viable bacteria at 0.5 uM preincubated with compound for 15 mins followed by light irradiation with 730 nm, 40 J/cm2 by cell counting analysis relative to control. The data set is classed as functional. The following applies: 0.25 h.

The subject of data set [5] is Staphylococcus aureus. As to the kind of experiment: Antibiofilm activity against Staphylococcus aureus assessed as disruption of mature biofilm rate at 16 uM preincubated for 15 mins followed by light irradiation with 730 nm, 40 J/cm2 by crystal violet staining based analysis relative to control. The data set is classed as functional. The following applies: 0.25 h.

Data set [6] has as its system Staphylococcus aureus. As to the kind of experiment: Antibiofilm activity against Staphylococcus aureus assessed as increase in red fluorescence intensity at 16 uM preincubated for 15 mins followed by light irradiation with 730 nm, 40 J/cm2 by SYTO 9/PI staining based CLSM analysis. Format: functional, organism-based.
Data set [7] concerns Staphylococcus aureus. As to the kind of experiment: Antibiofilm activity against Staphylococcus aureus assessed as reduction in green fluorescence intensity at 16 uM preincubated for 15 mins followed by light irradiation with 730 nm, 40 J/cm2 by SYTO 9/PI staining based CLSM analysis. The data set is classed as functional, organism-based.
The subject of data set [8] is HaCaT. The data set can be described thus: Phototoxicity in human HaCaT cells assessed as cell viability at 16 uM preincubated for 15 mins followed by light irradiation with 730 nm, 40 J/cm2 by MTT assay. Format: functional, cell-based. (In general: Formazan colour is commonly taken as a measure of viable cells.)
Data set [9] in a line: Photophysical property of the compound assessed as fluorescence quantum yield by UV-vis spectrophotometric analysis. The data set is classed as physicochemical.
Data set [10] relates to Staphylococcus aureus. As to the kind of experiment: Antibacterial activity against Staphylococcus aureus assessed as bacterial growth inhibition preincubated with compound for 15 mins followed by light irradiated with 730 nm, 40 J/cm2 and measured after 24 hrs by broth microdilution method. The data set is classed as functional. The following applies: light or radiation study, 24.25 h, time 1455 min.

A short description of data set [11]: Induction of singlet oxygen quantum yield under 418 nm light irradiation by DPBF based assay. Format: functional.
Data set [12] has as its system Staphylococcus aureus. The data set can be described thus: Bactericidal activity against Staphylococcus aureus at 0.5 to 8 uM. Format: functional, organism-based. The following applies: dose 0.5-8 µM.
Data set [13] relates to Candida albicans. The data set can be described thus: Antifungal activity against Candida albicans assessed as fungal growth inhibition measured after 24 hrs by broth microdilution method. The data set is classed as functional.
Data set [14] relates to Staphylococcus aureus. The data set can be described thus: Antibacterial activity against Staphylococcus aureus assessed as log reduction in bacterial viability at 8 uM preincubated with compound for 15 mins followed by light irradiation with 730 nm, 40 J/cm2 by cell counting analysis relative to control. The data set is classed as functional. The following applies: 0.25 h.

Data set [15] deals with Staphylococcus aureus. As to the kind of experiment: Antibacterial activity against Staphylococcus aureus assessed as bacterial growth inhibition measured after 24 hrs by broth microdilution method. The data set is classed as functional.
The subject of data set [16] is Candida albicans. The data set can be described thus: Antifungal activity against Candida albicans assessed as fungal growth inhibition preincubated with compound for 15 mins followed by light irradiated with 730 nm, 40 J/cm2 and measured after 24 hrs by broth microdilution method. Format: functional. The following applies: light or radiation study, 24.25 h, time 1455 min.

Data set [17] concerns Staphylococcus aureus. The data set can be described thus: Antibiofilm activity against Staphylococcus aureus assessed as viable bacteria at 16 uM preincubated for 15 mins followed by light irradiation with 730 nm, 40 J/cm2 by SYTO 9/PI staining based CLSM analysis. Format: functional, organism-based.
Data set [18] can be described thus: Dark cytotoxicity against human HaCaT cells assessed as cell viability at 16 uM preincubated for 15 mins by MTT assay. The data set is classed as toxicity, cell-based. As to conditions: read-out: Activity.
Data set [19] can be described thus: Photophysical property of the compound assessed as singlet oxygen quantum yield by UV-vis spectrophotometric analysis. Format: physicochemical.
Data set [20] has as its system Staphylococcus aureus. As to the kind of experiment: Antibiofilm activity against Staphylococcus aureus assessed as disruption of mature biofilm structure at 16 uM preincubated for 15 mins followed by light irradiation with 730 nm, 40 J/cm2 by crystal violet staining based analysis. The data set is classed as functional, organism-based.
In data set [21] the test system is HaCaT. The data set can be described thus: Phototoxicity in human HaCaT cells assessed as cell viability at 16 uM preincubated for 15 mins by MTT assay. The data set is classed as functional, cell-based.
Data set [22] concerns Staphylococcus aureus. The data set can be described thus: Antibiofilm activity against Staphylococcus aureus at 16 uM preincubated for 15 mins followed by light irradiation with 730 nm, 40 J/cm2 by SYTO 9/PI staining based CLSM analysis. The data set is classed as functional, organism-based.
Data set [23] concerns Staphylococcus aureus. As to the kind of experiment: Antibacterial activity against Staphylococcus aureus assessed as eradication rate at 8 uM preincubated with compound for 15 mins followed by light irradiation with 730 nm, 40 J/cm2 relative to control. The data set is classed as functional. The following applies: 0.25 h.

Molecules are shown by their SMILES. Calls of active or inactive are those of the source.

Regarding `CC[N+](C)(CC)CCCOc1ccc(-c2c3nc(c(-c4ccc(OCCC[N+](C)(CC)CC)cc4)c4[nH]c(c(-c5ccc(OCCC[N+](C)(CC)CC)cc5)c5nc(c(-c6ccc(OCCC[N+](C)(CC)CC)cc6)c6[nH]c2c2cc7ccccc7cc62)-c2cc6ccccc6cc2-5)c2cc5ccccc5cc42)-c2cc4ccccc4cc2-3)cc1.[Br-].[Br-].[Br-].[Br-]`, the Activity entry in the data set on Staphylococcus aureus [1] was “Dose-dependent-effect”; with Staphylococcus aureus [4], over 75%; with Staphylococcus aureus [5], 80.1%; in data set [9] it was 0.06; in data set [19], 0.51; in the data set on Staphylococcus aureus [23], over 99.9%. Besides, the MIC with Escherichia coli [2] was over 64 µM; in the data set with Escherichia coli [3], over 64 µM; with Staphylococcus aureus [10], 8 µM; in the data set on Candida albicans [13] it was 64 µM; in the data set with Staphylococcus aureus [15], 16 µM; in the data set with Candida albicans [16], 64 µM. For the same compound, the result (in the data set on Staphylococcus aureus [6]; in the data set on Staphylococcus aureus [7]; in data set [11]; with Staphylococcus aureus [12]; with Staphylococcus aureus [17]; in the data set with Staphylococcus aureus [20]) was Active. Also, in the data set on Staphylococcus aureus [22], the outcome was Active. For the same compound, the result in the data set with HaCaT [8] and with HaCaT [21] was inactive. Also, the “log(activity)” value with Staphylococcus aureus [14] was 3. Further, in [18], the viability at 0.25 h, 16 µM is over 80%.

With `[Br-].[Br-].[Br-].[Br-].c1cc[n+](CCCOc2ccc(-c3c4nc(c(-c5ccc(OCCC[n+]6ccccc6)cc5)c5[nH]c(c(-c6ccc(OCCC[n+]7ccccc7)cc6)c6nc(c(-c7ccc(OCCC[n+]8ccccc8)cc7)c7[nH]c3c3cc8ccccc8cc73)-c3cc7ccccc7cc3-6)c3cc6ccccc6cc53)-c3cc5ccccc5cc3-4)cc2)cc1`, the Activity result was “Dose-dependent-effect” in the data set with Staphylococcus aureus [1]; over 75% in the data set on Staphylococcus aureus [4]; 77.5% with Staphylococcus aureus [5]; 0.07 in data set [9]; 0.45 in data set [19]; over 99.9% in the data set on Staphylococcus aureus [23]. In addition, the minimal inhibitory concentration (MIC) in the data set on Escherichia coli [2] is over 64 µM; with Escherichia coli [3] it was over 64 µM; in the data set with Staphylococcus aureus [10], 8 µM; with Candida albicans [13] it was 64 µM; with Staphylococcus aureus [15], 32 µM; in the data set on Candida albicans [16], 32 µM. In addition, the result (with Staphylococcus aureus [6]; with Staphylococcus aureus [7]; in [11]; in the data set with Staphylococcus aureus [12]; in the data set with Staphylococcus aureus [20]) was Active. The result in the data set on HaCaT [8] and with HaCaT [21] was inactive. Also, the “log(activity)” value in the data set with Staphylococcus aureus [14] was found to be 3. Moreover, the viability at 0.25 h, 16 µM in data set [18] was over 80%.

Usually MIC stands for the smallest concentration in the dilution series that meets the test's criterion for growth inhibition.
